{"source": "paper PMC3025356", "about": "“Mechanism of the Ca^2+-Dependent Interaction between S100A4 and Tail Fragments of Nonmuscle Myosin Heavy Chain IIA” (Journal of Molecular Biology, 2011)", "key": {"S100A4 [1]": {"molecular_target": "T1, S100A4 (Homo sapiens, UniProt P26447)", "T1 construct": "We used full-length S100A4 for this analysis; made in house; host or cells: Escherichia coli BL21(DE3)", "experiment": "Competition with F-M16^N binding to S100A4 (fluorescence anisotropy)", "details": "read-out: Kd (K2) by competition", "protocol": "Titration (circles) was carried out in 20 mM NaCl, 10 mM Hepes, 1 mM Mg^2+, and 100 μM Ca^2+ at pH 7.5 and 20 °C. […] (squares).\nFluorescence spectra and anisotropy measurements were recorded using an SLM 8000 spectrofluorimeter (SLM, Urbana, IL). Fluorescein anisotropy measurements were carried out in L-format using a 515-nm emission filter. The four combinations of vertical and horizontal polarisers (vv, vh, hh, and hv) were each recorded for 30 s, and then the initial setting (vv) was re-read to check for signal stability. Calculations of the total fluorescence (Ivv + 2Ivh) and anisotropy (Ivv − Ivh/(Ivv + 2Ivh)), corrected for the g factor (hh/hv), were performed using an Excel spreadsheet. […] Note that the small correction for the emission intensity weighting to the observed anisotropy was not applied to these competitive titrations as the error will tend to cancel."}, "S100A4 [2]": {"molecular_target": "T1, S100A4", "details": "peptide residues 1908–1923; cited from earlier work", "from_the_text": "Our kinetic studies are also used to redefine the minimal binding fragment of the NM-MHC IIA tail (Fig. 1). Using a series of overlapping fragments and a blot overlay assay, Kriajevska et al. previously mapped the S100A4 binding site of nonmuscle myosin IIA to a 29-amino-acid region near the C-terminus (residues 1908–1936 in the current numbering system).[9]"}, "S100A4 [3]": {"molecular_target": "T1, S100A4", "experiment": "Quin-2 fluorescence, Ca^2+ dissociation from S100A4 in the presence of target peptides", "assay_type": "binding", "details": "50 μM peptide premixed with 10 μM S100A4; 100 mM NaCl, 10 mM Hepes, 100 μM Ca^2+, pH 7.5, 20 °C", "protocol": "Ca^2+ dissociation measurements for wild-type S100A4, using Quin-2 as described above, were repeated as a control for the effect of target peptides on this process. On mixing 10 μM S100A4 in the presence of Ca^2+ with 100 μM Quin-2, the observed profile was fitted to a single exponential with kobs = 17 s^− 1 (Fig. 5a; cf. k− 1 in Scheme 1).\nFig. 5 Dissociation of Ca^2+ from S100A4 in the absence and in the presence of target peptides monitored using Quin-2 fluorescence. (a) Mixed with 100 μM Quin-2 was 10 μM S100A4 + 50 μM Ca^2+ (stopped-flow reaction chamber concentrations). A superposed fit to a single exponential yields kobs = 17 s^− 1. […] (d) As in (a), but with 2.5 μM M200 premixed with 5 μM S100A4. A biphasic exponential fit yielded rate constants of 13 s^− 1 (A = 26%) and 0.30 s^− 1 (A = 74%). […] Experiments were carried out in either 20 mM NaCl, 20 mM Tris, 1 mM DTT, and 100 μM Ca^2+ at pH 7.5 and 20 °C (a and b; cf. Malashkevich et al.[17]), or 100 mM NaCl, 10 mM Hepes, and 100 μM Ca^2+ at pH 7.5 and 20 °C (c and d). […] Rate constants were unaffected by the inclusion of 1 mM Mg^2+.\nStopped-flow measurements were carried out using an SX18-MV apparatus (Applied Photophysics Ltd., Leatherhead, UK) with a dead time of 1.5 ms.[40] Records were generally captured on a logarithmic time base. Absorption (turbidity) measurements were usually recorded using a 10-mm pathlength, while fluorescence was recorded with a 2-mm pathlength for excitation and emission. The stated concentrations of components refer to the reaction chamber after mixing, unless otherwise indicated. Tyrosine fluorescence was excited at 280 nm, and the emission was collected through a UG11 bandpass filter plus a 305-nm longpass filter.[18] Fluorescein fluorescence was excited at 480 nm, and the emission was detected through a 515-nm longpass filter. Quin-2 fluorescence was measured by excitation at 336 nm, and emission was collected with a 455-nm longpass filter. For simultaneous recording of light scatter, a second channel was monitored through a UG11 filter. […]"}, "S100A4 [4]": {"molecular_target": "T1, S100A4", "experiment": "Competition of M32/M16^N with M200 for S100A4 (turbidity)", "assay_type": "biochemical", "details": "250 μM peptide, 5 μM M200, 10 μM S100A4, Ca^2+", "protocol": "Fig. 9 Dissociation of M200 filaments by S100A4. (a) Initially, M200 was added (i) from a concentrated stock in 0.5 M NaCl to give a final concentration of 5 μM M200 (with respect to the polypeptide chain) in 100 mM NaCl, 10 mM Hepes, and 0.1 mM Ca^2+ at pH 7.5 and 20 °C. A biphasic rise in turbidity was recorded for 200 s (continuous line). Then 10 μM S100A4 (with respect to monomer concentration) was added (ii), followed by 0.2 mM EGTA (iii) and 1 mM Ca^2+ (iv). […] (b) M200 was diluted (i) into 100 mM NaCl to form filaments as in (a), then 5 μM S100A4 was added (ii), causing a 54% drop in turbidity. A further 5 μM S100A4 (iii) caused turbidity to fall to almost zero. (c) Stopped-flow records monitoring the dissociation of 5 μM M200 filaments on jumping [NaCl] from 100 mM to 120 mM NaCl. Other components of the buffer were 20 mM Hepes, 1 mM Mg^2+, and 100 μM Ca^2+ at pH 7.5 and 20 °C. […] In the presence of 20 μM S100A4 (lower trace), the turbidity decreased by 87% with a rate constant of 0.2 s^− 1.\nFurther information on Scheme 2 was obtained from competition assays. […] An independent estimate of K5 based on the Ca^2+ dependence of the turbidity assay yielded a value of 0.003 μM (see Supplementary Data).\nThe decrease in fluorescence, […]\nthat F-M16N binding was slightly faster. […]\nA second estimate was calculated from the apparent Ca2+ binding constant observed in the turbidity assay […]"}}, "data": [{"molecule": "CSCC[C@H](NC(=O)[C@H](C)NC(=O)[C@H](CC(=O)O)NC(C)=O)C(=O)N[C@@H](CC(N)=O)C(=O)N[C@@H](CCCNC(=N)N)C(=O)N[C@@H](CCC(=O)O)C(=O)N[C@H](C(=O)N[C@@H](CO)C(=O)N[C@@H](CO)C(=O)N[C@@H](CC(C)C)C(=O)N[C@@H](CCCCN)C(=O)N[C@@H](CC(N)=O)C(=O)N[C@@H](CCCCN)C(=O)N[C@@H](CC(C)C)C(=O)N[C@@H](CCCNC(=N)N)C(=O)N[C@@H](CCCNC(=N)N)C(N)=O)C(C)C", "note": "[M16^N]", "values": [{"measurement": "Kd", "setting": "S100A4 [1]", "value": "≥ 100", "unit": "µM"}, {"measurement": "difference in binding constant vs longer fragments (1851–1960, 1893–1923)", "setting": "S100A4 [2]", "value": "~2 -fold"}, {"measurement": "kobs, Ca^2+ dissociation with peptide", "setting": "S100A4 [3]", "value": 16, "unit": "s^− 1"}, {"measurement": "inhibition of turbidity change amplitude", "setting": "S100A4 [4]", "value": "no effect"}]}]}
